Source: patent publication US8273754B2, “Substituted 1H-pyrazolo[3,4-D]pyrimidine-6-amine compounds” (ArQule, Inc., priority 2008, dated 2012)
Read-outs that look alike come from different tables or passages of the source.

System: cancer cells
Assay: MTS cell growth inhibition assay (72 hours)
Type: cell-based
Experimental: Cells were maintained at 37° C., 5% CO2 in DMEM media supplemented with 1% fetal bovine serum, penicillin/streptomycin and fungizone (Invitrogen). Cells were seeded into 96-well tissue culture plates at 3000 per well and cultured at 37° C. for 18 hours. Test compounds were dissolved and diluted to 300× in DMSO then further diluted 1:40 in DMEM before addition to cells (1:7.5 dilution). Cells were incubated with test compounds for 72 hours followed by incubation with tetrazolium compound (3-(4,5-dimethylthiazol-2-yl)-5-(3-carboxymethoxyphenyl)-2-(4-sulfophenyl)-2H-tetrazolium, inner salt; MTS) and the electron coupling reagent, phenazine methosulfate (PMS) for 4 hours. […] The ability of compounds to inhibit cell growth in this assay is correlated with the reduction of dehydrogenase enzyme activity found in metabolically active cells. The measurement of the absorbance of the formazan was assessed using an ENVISION™ (Perkin Elmer) microplate reader at 492 nm. The calculated IC50 value is the concentration of the test compound that causes a 50% decrease in the absorbance. […] A=>79% inhibition, B=>50 to 79% inhibition, C=<50% inhibition.

[1] = Homo sapiens, DLD-1, 72 h, DLD-1 cells, read-out: DLD-1 MTS 72 hr at 10 μM
[2] = Homo sapiens, KATO III, 72 h, KATO III cells, read-out: KATO III MTS 72 hr at 10 μM
[3] = Homo sapiens, MDA-MB-231, 72 h, MDA-MB-231 cells, read-out: MDA-MB-231 MTS 72 hr at 10 μM
[4] = Homo sapiens, NCI-H1299, 72 h, NCI-H1299 cells, read-out: NCI-H1299 MTS 72 hr at 10 μM
[5] = PaCa-2, 72 h, PACA-2 cells, read-out: PACA-2 MTS 72 hr at 10 μM

In the case of `Nc1nc(NC2Cc3ccccc3N(S(=O)(=O)c3ccc(NC(=O)Nc4ccccc4F)cc3)C2)c2cn[nH]c2n1` (stereo not shown) [Compound 191, 1-[4-({3-[(6-amino-1H-pyrazolo[3,4-d]pyrimidin-4-yl)amino]-3,4-dihydroquinolin-1(2H)-yl}sulfonyl)phenyl]-3-(2-fluorophenyl)urea], the inhibition at 10 µM [1] is reported as under 50%, the inhibition at 10 µM [2] is reported as under 50% and the inhibition at 10 µM [3] is reported as under 50%. The inhibition at 10 µM [4] was under 50% and the inhibition at 10 µM [5] was under 50%.
`Nc1nc(NC2Cc3ccccc3N(C(=O)c3cccs3)C2)c2cn[nH]c2n1` (stereo not shown) [Compound 79, (3-(6-amino-1H-pyrazolo[3,4-d]pyrimidin-4-ylamino)-3,4-dihydroquinolin-1(2H)-yl)(thiophen-2-yl)methanone] gave an inhibition at 10 µM [1] of over 79%, an inhibition at 10 µM [2] of over 79% and an inhibition at 10 µM [3] of 50 to 79%. The inhibition at 10 µM [4] was under 50% and the inhibition at 10 µM [5] was over 79%.
Work on `Nc1nc(NC2Cc3ccccc3N(S(=O)(=O)c3ccc(-c4ccc(Cl)cc4)cc3)C2)c2cn[nH]c2n1` (stereo not shown) [Compound 75, N4-(1-(4′-chlorobiphenyl-4-ylsulfonyl)-1,2,3,4-tetrahydroquinolin-3-yl)-1H-pyrazolo[3,4-d]pyrimidine-4,6-diamine] yielded an inhibition at 10 µM [1] of over 79%, an inhibition at 10 µM [2] of over 79% and an inhibition at 10 µM [3] of over 79%. It also gave an inhibition at 10 µM [4] of 50 to 79% and an inhibition at 10 µM [5] of over 79%.
In the case of `COc1ccc(OC)c(S(=O)(=O)N2CCC(Nc3nc(N)nc4[nH]ncc34)Cc3ccccc32)c1` (stereo not shown) [Compound 176, N4-{1-[(2,5-dimethoxyphenyl)sulfonyl]-2,3,4,5-tetrahydro-1H-1-benzazepin-4-yl}-1H-pyrazolo[3,4-d]pyrimidine-4,6-diamine], the inhibition at 10 µM [1] is reported as under 50%, the inhibition at 10 µM [2] is reported as under 50% and the inhibition at 10 µM [3] is reported as under 50%. For the same compound, the inhibition at 10 µM [4] was under 50% and the inhibition at 10 µM [5] was under 50%.
Work on `CC1(C(=O)N2CC(Nc3nc(N)nc4[nH]ncc34)Cc3ccccc32)CCCCC1` (stereo not shown) [Compound 96, (3-(6-amino-1H-pyrazolo[3,4-d]pyrimidin-4-ylamino)-3,4-dihydroquinolin-1(2H)-yl)(1-methylcyclohexyl)methanone] yielded an inhibition at 10 µM [1] of under 50%, an inhibition at 10 µM [2] of under 50% and an inhibition at 10 µM [3] of under 50%. It also gave an inhibition at 10 µM [4] of under 50% and an inhibition at 10 µM [5] of under 50%.
`Nc1nc(NC2Cc3ccccc3N(S(=O)(=O)c3cccc(Cl)c3F)C2)c2cn[nH]c2n1` (stereo not shown) [Compound 78, N4-(1-(3-chloro-2-fluorophenylsulfonyl)-1,2,3,4-tetrahydroquinolin-3-yl)-1H-pyrazolo[3,4-d]pyrimidine-4,6-diamine] was tested, and the inhibition at 10 µM [1] was under 50%, the inhibition at 10 µM [2] was under 50% and the inhibition at 10 µM [3] was under 50%. For the same compound, the inhibition at 10 µM [4] was under 50% and the inhibition at 10 µM [5] was under 50%.
With `COc1cccc(CN2CC(Nc3nc(N)nc4[nH]ncc34)Cc3ccccc32)c1F` (stereo not shown) [Compound 137, N4-[1-(2-fluoro-3-methoxybenzyl)-1,2,3,4-tetrahydroquinolin-3-yl]-1H-pyrazolo[3,4-d]pyrimidine-4,6-diamine] the inhibition at 10 µM [1] was over 79%, the inhibition at 10 µM [2] was over 79% and the inhibition at 10 µM [3] was over 79%. For the same compound, the inhibition at 10 µM [4] was over 79% and the inhibition at 10 µM [5] was over 79%.
`Nc1nc(NC2Cc3ccccc3N(Cc3c(F)cccc3F)C2)c2cn[nH]c2n1` (stereo not shown) [Compound 150, N4-[1-(2,6-difluorobenzyl)-1,2,3,4-tetrahydroquinolin-3-yl]-1H-pyrazolo[3,4-d]pyrimidine-4,6-diamine] showed an inhibition at 10 µM [1] of over 79%, an inhibition at 10 µM [2] of 50 to 79% and an inhibition at 10 µM [3] of under 50%. It also gave an inhibition at 10 µM [4] of under 50% and an inhibition at 10 µM [5] of over 79%.
Work on `COc1ccc(CN2CC(Nc3nc(N)nc4[nH]ncc34)Cc3ccccc32)cc1OCc1ccccc1` (stereo not shown) [Compound 160, N4-{1-[3-(benzyloxy)-4-methoxybenzyl]-1,2,3,4-tetrahydroquinolin-3-yl}-1H-pyrazolo[3,4-d]pyrimidine-4,6-diamine] yielded an inhibition at 10 µM [1] of over 79%, an inhibition at 10 µM [2] of over 79% and an inhibition at 10 µM [3] of under 50%. It also gave an inhibition at 10 µM [4] of under 50% and an inhibition at 10 µM [5] of over 79%.
With `Nc1nc(NC2Cc3ccccc3N(Cc3ccc4nccnc4c3)C2)c2cn[nH]c2n1` (stereo not shown) [Compound 133, N4-[1-(quinoxalin-6-ylmethyl)-1,2,3,4-tetrahydroquinolin-3-yl]-1H-pyrazolo[3,4-d]pyrimidine-4,6-diamine] the inhibition at 10 µM [1] was under 50%, the inhibition at 10 µM [2] was under 50% and the inhibition at 10 µM [3] was under 50%. The inhibition at 10 µM [4] was under 50% and the inhibition at 10 µM [5] was under 50%.
With `Nc1nc(NC2Cc3ccccc3N(S(=O)(=O)c3cc(Cl)ccc3Cl)C2)c2cn[nH]c2n1` (stereo not shown) [Compound 32, N4-(1-(2,5-dichlorophenylsulfonyl)-1,2,3,4-tetrahydroquinolin-3-yl)-1H-pyrazolo[3,4-d]pyrimidine-4,6-diamine] the inhibition at 10 µM [1] was 50 to 79%, the inhibition at 10 µM [2] was over 79% and the inhibition at 10 µM [3] was under 50%. It also gave an inhibition at 10 µM [4] of under 50% and an inhibition at 10 µM [5] of under 50%.
With `Nc1nc(NC2Cc3ccccc3N(S(=O)(=O)c3cccc(NC(=O)Nc4ccc(Cl)c(C(F)(F)F)c4)c3)C2)c2cn[nH]c2n1` (stereo not shown) [Compound 223, 1-(3-(3-(6-amino-1H-pyrazolo[3,4-d]pyrimidin-4-ylamino)-3,4-dihydroquinolin-1(2H)-ylsulfonyl)phenyl)-3-(4-chloro-3-(trifluromethyl)phenyl)urea] the inhibition at 10 µM [1] was over 79%, the inhibition at 10 µM [2] was over 79% and the inhibition at 10 µM [3] was over 79%. It also gave an inhibition at 10 µM [4] of over 79% and an inhibition at 10 µM [5] of over 79%.
Compound `Nc1nc(NC2Cc3ccccc3N(C(=O)c3ccccc3Br)C2)c2cn[nH]c2n1` (stereo not shown) [Compound 81, (3-(6-amino-1H-pyrazolo[3,4-d]pyrimidin-4-ylamino)-3,4-dihydroquinolin-1(2H)-yl)(2-bromophenyl)methanone] has an inhibition at 10 µM [1] of 50 to 79%, an inhibition at 10 µM [2] of over 79% and an inhibition at 10 µM [3] of over 79%. For the same compound, the inhibition at 10 µM [4] was under 50% and the inhibition at 10 µM [5] was 50 to 79%.
For `Nc1nc(NC2Cc3ccccc3N(S(=O)(=O)c3cccc(Cl)c3Cl)C2)c2cn[nH]c2n1` (stereo not shown) [Compound 57, N4-(1-(2,3-dichlorophenylsulfonyl)-1,2,3,4-tetrahydroquinolin-3-yl)-1H-pyrazolo[3,4-d]pyrimidine-4,6-diamine], the inhibition at 10 µM [1] was under 50%, the inhibition at 10 µM [2] was under 50% and the inhibition at 10 µM [3] was under 50%. It also gave an inhibition at 10 µM [4] of under 50% and an inhibition at 10 µM [5] of under 50%.
In the case of `Nc1nc(NC2Cc3ccccc3N(S(=O)(=O)c3ccc(NC(=O)Nc4ccccc4)cc3)C2)c2cn[nH]c2n1` (stereo not shown) [Compound 225, 1-(4-(3-(6-amino-1H-pyrazolo[3,4-d]pyrimidin-4-ylamino)-3,4-dihydroquinolin-1(2H)-ylsulfonyl)phenyl)-3-phenylurea], the inhibition at 10 µM [1] is reported as over 79%, the inhibition at 10 µM [2] is reported as over 79% and the inhibition at 10 µM [3] is reported as over 79%. For the same compound, the inhibition at 10 µM [4] was over 79% and the inhibition at 10 µM [5] was over 79%.
Work on `Nc1nc(NC2Cc3ccccc3N(C(=O)C3CCCCC3)C2)c2cn[nH]c2n1` (stereo not shown) [Compound 84, (3-(6-amino-1H-pyrazolo[3,4-d]pyrimidin-4-ylamino)-3,4-dihydroquinolin-1(2H)-yl)(cyclohexyl)methanone] yielded an inhibition at 10 µM [1] of under 50%, an inhibition at 10 µM [2] of under 50% and an inhibition at 10 µM [3] of under 50%. For the same compound, the inhibition at 10 µM [4] was under 50% and the inhibition at 10 µM [5] was under 50%.
With `COC(=O)c1ccccc1NC(=O)N1CC(Nc2nc(N)nc3[nH]ncc23)Cc2ccccc21` (stereo not shown) [Compound 119, methyl 2-(3-(6-amino-1H-pyrazolo[3,4-d]pyrimidin-4-ylamino)-1,2,3,4-tetrahydroquinoline-1-carboxamido)benzoate] the inhibition at 10 µM [1] was over 79%, the inhibition at 10 µM [2] was over 79% and the inhibition at 10 µM [3] was over 79%. The inhibition at 10 µM [4] was over 79% and the inhibition at 10 µM [5] was over 79%.
Work on `Nc1nc(NC2Cc3ccccc3N(S(=O)(=O)c3ccc(NC(=O)NC4CCCc5ccccc54)cc3)C2)c2cn[nH]c2n1` (stereo not shown) [Compound 192, 1-[4-({3-[(6-amino-1H-pyrazolo[3,4-d]pyrimidin-4-yl)amino]-3,4-dihydroquinolin-1(2H)-yl}sulfonyl)phenyl]-3-(1,2,3,4-tetrahydronaphthalen-1-yl)urea] yielded an inhibition at 10 µM [1] of over 79%, an inhibition at 10 µM [2] of over 79% and an inhibition at 10 µM [3] of over 79%. The inhibition at 10 µM [4] was over 79% and the inhibition at 10 µM [5] was over 79%.
With `Nc1nc(NC2Cc3ccccc3N(C(=O)Nc3ccc(C(F)(F)F)cc3)C2)c2cn[nH]c2n1` (stereo not shown) [Compound 117, 3-(6-amino-1H-pyrazolo[3,4-d]pyrimidin-4-ylamino)-N-(4-(trifluoromethyl)phenyl)-3,4-dihydroquinoline-1(2H)-carboxamide] the inhibition at 10 µM [1] was under 50%, the inhibition at 10 µM [2] was under 50% and the inhibition at 10 µM [3] was under 50%. It also gave an inhibition at 10 µM [4] of under 50% and an inhibition at 10 µM [5] of under 50%.
With `Nc1nc(NC2Cc3ccccc3N(S(=O)(=O)c3cccc(NC(=O)Nc4c(F)cccc4F)c3)C2)c2cn[nH]c2n1` (stereo not shown) [Compound 203, 1-[3-({3-[(6-amino-1H-pyrazolo[3,4-d]pyrimidin-4-yl)amino]-3,4-dihydroquinolin-1(2H)-yl}sulfonyl)phenyl]-3-(2,6-difluorophenyl)urea] the inhibition at 10 µM [1] was under 50%, the inhibition at 10 µM [2] was under 50% and the inhibition at 10 µM [3] was under 50%. It also gave an inhibition at 10 µM [4] of under 50% and an inhibition at 10 µM [5] of 50 to 79%.
